Measured values as given in publication PMC9403987 (Frontiers in Oncology, 2022).

Experiments:
[1] = mouse, in vivo, po, 30 mg/kg; cited from earlier work
Colo320DM = assay: Cell proliferation assay; format: cell-based, Homo sapiens; settings: colon carcinoma, 72 hours
In short: (§1)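 Tumor cells were seeded at 4000 per well, incubated overnight at 37°C with 5% CO2, then exposed to test compounds. Proliferation was measured either by counting DAPI-stained nuclei (cells fixed in 4% formaldehyde, permeabilized with 0.2% Triton X-100, 1 μg/mL DAPI, imaged) or by CellTiter-Glo luminescence of metabolically active cells.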

PLC/PRF/5 = assay: Cell proliferation assay; format: cell-based, Homo sapiens; settings: PLC/PRF/5, liver, hepatocellular carcinoma, 72 hours
In short: as §1

CT26.WT = assay: Cell proliferation assay; format: cell-based, Mus musculus; settings: colorectal carcinoma, 72 hours
Method: (§2) To quantify cell proliferation, either the nuclei of live cells were counted following staining with 4’,6-diamidino-2-phenylindole (DAPI; Sigma-Aldrich, Burlington, MA, USA), or metabolically active cells were detected using a CellTiter-Glo assay (Promega Corporation, Madison, WI, USA). Cells from a range of human and mammalian tumor cell lines (American Type Culture Collection, Manassas, VA, USA) were seeded at 4000 cells per well in 100 μL of culture medium in a 96-well plate and incubated overnight at 37°C with 5% CO2. […] In the DAPI staining method, cells were washed using 1× phosphate-buffered saline (PBS; Gibco Thermo Fisher Scientific, Waltham, MA, USA), fixed with 4% formaldehyde, permeabilized with 0.2% Triton X-100 (Sigma-Aldrich), washed again, and stained with 1 μg/mL DAPI to visualize cell nuclei. Cells were washed with 1× PBS three times, and 100 μL 1× PBS was added to each well. Plates were scanned using an IN Cell Analyzer 2200 (GE Healthcare Life Sciences, Chicago, IL, USA) and the number of cells per well was recorded. In the CellTiter-Glo assay, 60 μL of CellTiter-Glo luminescent solution was added to each well after incubation with the test compounds, and the assay plate was scanned using a Tecan Infinite M1000 PRO microplate reader (Tecan Group AG, Männedorf, Switzerland) to record luminescent signals.

BRL = assay: Cell proliferation assay; format: cell-based, Rattus norvegicus; settings: liver, normal, 72 hours
Method: as §2

[2] = Excretion of radioactivity in intact rats; format: in vivo, Sprague Dawley rats
Method: To investigate the degree to which GLR2007 penetrated organs and tissues, and the levels of excretion of the compound, rats were dosed with radiolabeled GLR2007 and whole-body autoradiography was performed. Sprague Dawley rats (Vital River Laboratory Animal Technology Co., Beijing, China; N=38, female n=19; 8–11 weeks old) were maintained in humidity- and temperature-controlled conditions on a 12-hour light/dark cycle, with food (certified rat diet; Jiangsu Xietong Pharmaceutical Biological Engineering Co., Ltd, Jiangsu, China) and water available ad libitum. […] Urine, feces, and cage rinse/wash up to 168 hours after treatment were collected from six intact rats (three male, three female); bile, urine, feces, and cage rinse/wash up to 72 hours after treatment were collected from eight bile duct cannulated (BDC) rats (four male, four female). Heart, lung, liver, spleen, kidneys, whole brain, stomach tract wall, intestinal tract wall, skeletal muscle, body fat, reproductive organs (uterus and ovary for female rats, testis and epididymis for male rats) were collected at 2, 6, 24, and 72 hours after treatment (three male, three female per time point). The total radioactivity (TRA) of plasma, bile, urine, and cage rinse/wash samples was directly analyzed by liquid scintillation counting. Fecal and tissue homogenates and blood were combusted using a PerkinElmer Oxidizer (PerkinElmer Inc.), and the generated [^14C]CO2 was captured in ^14C scintillation cocktail (Shimadzu Corporation, Kyoto, Japan), followed by analysis using a PerkinElmer Liquid Scintillation Counter (PerkinElmer Inc.). The TRA levels determined in bile, urine, feces, and cage rinse/wash were used to calculate the percentage of the administered dose excreted. Mean TRA values of whole brain and plasma at 2, 6, 24, and 72 hours were used to calculate the area under concentration–time curve from time zero to 72 hours (AUC0–72), using a noncompartmental model in Phoenix WinNonlin v6.3 software (Certara, Princeton, NJ, USA).

U87-MG = settings: cell line U87-MG; cited from earlier work

Row | SMILES | Kp,uu [1] | IC50 (Colo320DM) [nM] | IC50 (PLC/PRF/5) [nM] | IC50 (CT26.WT) [nM] | IC50 (BRL) [nM] | Radioactivity excreted via feces ([2]; single oral 6 mg/100 μCi/kg) [%] | Dose recovered ([2]; within 168 hours, single oral 6 mg/100 μCi/kg) [%] | Dose recovered ([2]; within the first 48 hours) [%] | Cell cycle effect (U87-MG)
1 | CCN1CCN(Cc2ccc(Nc3ncc(F)c(-c4cc(F)c5nc(C)n(C(C)C)c5c4)n3)nc2)CC1 [Abemaciclib, abemaciclib, reference compound] | 0.03 |  |  |  |  |  |  |  | 
2 | CC1=Nc2c(F)cc(-c3nc(Nc4ccc(C5CCN(C)CC5)cn4)ncc3F)cc2C12CCCC2 [GLR2007] |  | 1140 | 302 | 2020 | 2120 | 84.10 | 95.5 | 74.3 | induce G1 arrest
